Assay results published in ChEMBL document CHEMBL1130865, “Carbaxylosides of 4-ethyl-2-oxo-2H-benzopyran-7-yl as non-hydrolyzable, orally active venous antithrombotic agents” (1998).

Tests used:
[1] = test system: Rattus norvegicus; assay: Antithrombotic activity was determined in rat upon oral administration at dose 20 mg/kg (4 hours before); assay type: functional
[2] = test system: Rattus norvegicus; assay: Antithrombotic activity was determined in rat upon oral administration at dose 3 mg/kg (4 hours before); assay type: functional

| SMILES | Activity [1] [%] | Activity [2] [%] |
| --- | --- | --- |
| CCc1cc(=O)oc2cc(OC3CCC(O)[C@H](O)[C@H]3O)ccc12 (some centres undefined) | 20 |  |
| CCc1cc(=O)oc2cc(OC3OCC(O)[C@H](O)[C@H]3O)ccc12 (some centres undefined) |  | 71 |
| CCc1cc(=O)oc2cc(OC3SCC(O)[C@H](O)[C@H]3O)ccc12 (some centres undefined) |  | 71 |
| CCc1cc(=O)oc2cc(OC3CCC(O)C(O)C3O)ccc12 (single isomer, unassigned; (-)) | 96 |  |
